# Data taken from US6743583B2, “Identification of drugs and drug targets by detection of the stress response” (priority 2000, dated 2004).
# Assays:
# Wildtype strain = experiment: HSP26 promoter GFP-uv reporter stress response, fluorimeter; type: cell-based, Saccharomyces cerevisiae; design: key: F = fluorescent activity from hsp reporter construct, indicating stress response is induced; NF = no fluorescence, no induction of stress response; settings: predicted expectations
# Excerpt: (§1) Stress response gene reporter constructs are generally constructed as follows: approximately 500 bp to approximately 1,000 bp or more region upstream of the first start codon of the stress gene of interest (the region encompassing the stress response gene promoter) is fused to the coding region of a reporter polypeptide (e.g., GFP-uv in pRS316 (Sikorski and Hieter (1989) Genetics 122(1):19-27, Clontech). In a specific exemplary construct, approximately 500 bp of the sequence upstream of the hsp26 gene were ligated to the coding region of GFP-uv in pRS316 to provide for expression of the GFP-uv reporter polypeptide under control of the HSP26 promoter.
# (§2) The above-described HSP26 construct and a control construct (containing no upstream HSP26 promoter sequence) is transformed into 4 strains: a wildtype strain and strains heterozygous for ALG7, HIS3, and TUB2. The his3 heterozygous strain is sensitive to 3-amino triazole; the alg7 heterozygous strain is sensitive to tunicamycin; and the tub2 heterozygous strain is sensitive to benomyl. The expression of hsp26 activity is then monitored using a fluorimeter. Comparisons (with predicted expectations) are as follows: […]
# his3 heterozygous strain = settings: cited from earlier work
# his3 heterozygote = experiment: HSP26 promoter GFP-uv reporter stress response, fluorimeter; type: cell-based, Saccharomyces cerevisiae; design: key: F = fluorescent activity from hsp reporter construct, indicating stress response is induced; NF = no fluorescence, no induction of stress response; settings: predicted expectations
# Excerpt: as §1
# (§3) 80% of all heterozygous deletion strains of Saccharomyces cerevisiae have been constructed. Heterozygous deletion strains were generated using homologous gene transplacement (Rothstein, R. (1991) Meth. Enzymol. 194:281-301) in wild-type diploid strains using standard methods. The resulting heterozygotes carry a deletion in one of the two copies of a given gene.
# as §2
# tub2 heterozygote = experiment: as above; type: cell-based, Saccharomyces cerevisiae; design: key: F = fluorescent activity from hsp reporter construct, indicating stress response is induced; NF = no fluorescence, no induction of stress response; settings: predicted expectations
# Excerpt: as §1, §3, §2
# alg7 heterozygote = experiment: as above; type: cell-based, Saccharomyces cerevisiae; design: key: F = fluorescent activity from hsp reporter construct, indicating stress response is induced; NF = no fluorescence, no induction of stress response; settings: predicted expectations
# Excerpt: as §1, §3, §2
# [1] = tested on: yeast stress response genes; settings: published data, cited from earlier work
compound,measurement,setting,value
"Nc1nc[nH]n1 [3-amino triazole, 3-amino-triazole]",fluorescent activity from hsp26 reporter construct,Wildtype strain,F
same,sensitivity of strain to drug,his3 heterozygous strain,sensitive
same,fluorescent activity from hsp26 reporter construct,his3 heterozygote,NF
same,fluorescent activity from hsp26 reporter construct,tub2 heterozygote,F
same,fluorescent activity from hsp26 reporter construct,alg7 heterozygote,F
C=CC[C@@H]1/C=C(\C)C[C@H](C)C[C@H](OC)[C@H]2O[C@@](O)(C(=O)C(=O)N3CCCC[C@H]3C(=O)O[C@H](/C(C)=C/[C@@H]3CC[C@@H](O)[C@H](OC)C3)[C@H](C)[C@@H](O)CC1=O)[C@H](C)C[C@@H]2OC [FK506],fold induction of DDR48 (YMR173w),[1]; FK506 50 μM,1 fold
same,fold induction of HSP10 (YOR020C),[1]; FK506 50 μM,1 fold
same,fold induction of HSP12 (YFL014W),[1]; FK506 50 μM,1 fold
same,fold induction of HSP26 (YBR072W),[1]; FK506 50 μM,7.1 fold
same,fold induction of HSP30 (YCR021C),[1]; FK506 50 μM,2.3 fold
same,fold induction of HSP42 (YDR171w),[1]; FK506 50 μM,8.7 fold
same,fold induction of HSP60 (YLR259C),[1]; FK506 50 μM,1 fold
same,fold induction of HSP78 (YDR258C),[1]; FK506 50 μM,1 fold
same,fold induction of HSP82 (YPL240C),[1]; FK506 50 μM,1 fold
same,fold induction of HSP104 (YLL026W),[1]; FK506 50 μM,1 fold
same,fold induction of SSA1 (YAL005C),[1]; FK506 50 μM,1 fold
same,fold induction of UBC5 (YDR059c),[1]; FK506 50 μM,1.1 fold
same,fold induction of AMS1 (YGL156W),[1]; FK506 50 μm,2.2 fold
same,fold induction of GFA1 (YKL104C),[1]; FK506 50 μm,1 fold
same,fold induction of GSC2 (YGR032W),[1]; FK506 50 μm,1.1 fold
same,fold induction of HXT5 (YHR096C),[1]; FK506 50 μm,1.6 fold
same,fold induction of ISF1 (YMR081C),[1]; FK506 50 μm,5.4 fold
same,fold induction of PAI3 (YMR174C),[1]; FK506 50 μm,1 fold
same,fold induction of PRY1 (YJL079C),[1]; FK506 50 μm,1 fold
same,fold induction of PUT1 (YLR142W),[1]; FK506 50 μm,7.6 fold
same,fold induction of SNZ3 (YFL059W),[1]; FK506 50 μm,6.3 fold
same,fold induction of TSI1 (YLR178C),[1]; FK506 50 μm,1.3 fold
same,fold induction of YBL049W,[1]; FK506 50 μm,6.7 fold
same,fold induction of YDR018C,[1]; FK506 50 μm,8.9 fold
same,fold induction of YFL030W,[1]; FK506 50 μm,2 fold
same,fold induction of YFR026C,[1]; FK506 50 μm,3.7 fold
same,fold induction of YGR043C,[1]; FK506 50 μm,2.1 fold
same,fold induction of YIL042C,[1]; FK506 50 μm,2.7 fold
same,fold induction of YIL117C,[1]; FK506 50 μm,1 fold
same,fold induction of YJL144W,[1]; FK506 50 μm,7.6 fold
same,fold induction of YKL107W,[1]; FK506 50 μm,2.5 fold
same,fold induction of YLR053C,[1]; FK506 50 μm,5.5 fold
same,fold induction of YLR080W,[1]; FK506 50 μm,5.5 fold
same,fold induction of YLR194C,[1]; FK506 50 μm,1 fold
same,fold induction of YMR040W,[1]; FK506 50 μm,1.6 fold
same,fold induction of YMR090W,[1]; FK506 50 μm,1.2 fold
same,fold induction of YMR107W,[1]; FK506 50 μm,5.9 fold
same,fold induction of YNL194C,[1]; FK506 50 μm,6.3 fold
same,fold induction of YPS3 (YLR121C),[1]; FK506 50 μm,2.5 fold
